# Test results from patent publication US20160016958A1, “Method of Labeling Flumazenil with F-18 and Separating and Purifying F-18-Flumazenil” (Institute of Nuclear Energy Research, Atomic Energy …, priority 2014, published 2016).
# Test: lipophilicity test, octanol/PBS partition with gamma counter
# Format: physicochemical
compound,measurement,value
CCOC(=O)c1ncn2c1CN(C)C(=O)c1cc([18F])ccc1-2 [F-18-flumazenil],log P value,1.49±0.12
